Test results as given in patent US20110281883A1, “4-Phenyl-pyrane-3,5-diones, 4-Phenyl-thiopyrane-3,5-diones and Cyclohexanetriones and Their Use as Insecticides, Acaricides and/or Fungicides” (Bayer Cropscience AG, priority 2009, published 2011).

Assays:
[1] = system: mustard beetle larvae (Phaedon cochleariae); test: Phaedon cochleariae test (PHAECO spray application); assay type: in vivo; details: 168 h, application rate 500 g/ha, sprayed Chinese cabbage (Brassica pekinesis) leaf-disks, after 7 days, read-out: mortality in % (good activity)
Method: Phaedon cochleariae—Test; (PHAECO Spray Application)
Solvent: 78.0 parts by weight of acetone • • 1.5 parts by weight of dimethylformamide
Emulsifier: 0.5 parts by weight of alkylaryl polyglycolether
To produce a suitable preparation of active compound, 1 part by weight of active compound is mixed with the stated amount of solvent and emulsifier, and the concentrate is diluted with emulsifier-containing water to the desired concentration.Chinese cabbage (Brassica pekinesis) leaf-disks are sprayed with a preparation of the active ingredient of the desired concentration. Once dry, the leaf disks are infested with mustard beetle larvae (Phaedon cochleariae). After 7 days mortality in % is determined. 100% means that all beetle larvae have been killed and 0% means that none of the beetle larvae have been killed.

[2] = system: two spotted spidermite (Tetranychus urticae), OP-resistant; test: Tetranychus urticae test; OP-resistant (TETRUR spray application); assay type: in vivo; details: in Phaseolus vulgaris, 144 h, read-out: mortality in % (good activity)
Method: Tetranychus urticae—Test; OP-Resistant (TETRUR Spray Application)
Solvent: 78.0 parts by weight acetone • 1.5 parts by weight dimethylformamide
Emulsifier: 0.5 parts by weight alkylarylpolyglcolether
To produce a suitable preparation of active compound, 1 part by weight of active compound is mixed with the stated amount of solvent and emulsifier, and the concentrate is diluted with emulsifier-containing water to the desired concentration.French beans (Phaseolus vulgaris) which are heavily infested with all stages of the two spotted spidermite (Tetranychus urticae), are sprayed with a preparation of the active ingredient at the desired concentration. After 6 days mortality in % is determined. 100% means that all spider mites have been killed and 0% means that none of the spider mites have been killed.

melting point	Structure (SMILES)	mortality at 500 g/ha [1]	mortality at 100 g/ha [2]
165 to 167 °C	CCc1ccc(-c2ccc(F)cc2)cc1C1=C(O)[C@@]2(C)CC[C@H](O2)C1=O	–	–
123 to 124 °C	CCc1ccc(-c2ccc(Cl)cc2)cc1C1=C(O)C(C)(C)OC(C)(COC)C1=O (centres unmarked)	–	–
79.5 °C	CCc1ccc(-c2ccc(Cl)cc2)cc1C1=C(O)C2CCCC(C1=O)C2=O (centres unmarked)	–	–
–	CCc1ccc(-c2ccc(Cl)cc2)cc1C1=C(O)C(C)(C)C(=O)C(C)(C)C1=O [Compound B-1]	> 80%	≥ 80%
